ChEMBL document CHEMBL3525952, “A Baeyer-Villiger oxidation specifically catalyzed by human flavin-containing monooxygenase 5” (Drug Metab Dispos, 2011)

Columns and labels:
[1] = Drug metabolism in human liver S9 fraction assessed as ER-879123 formation at 50 uM after 60 mins in presence of NADP+ by LC-MS/MS method; assay type: ADME, subcellular; settings: s9, 1 h
[2] = target: T1, Flavin-containing monooxygenase 1 (Homo sapiens, UniProt Q01740); assay: Drug metabolism assessed as human recombinant FMO1-mediated ER-879123 formation in presence of dog liver cytosolic fractions and NAD+ at 50 uM after 60 mins by LC-MS/MS method; assay type: ADME, tissue-based; settings: recombinant enzyme, 1 h
T1 sequence (Q01740 whole entry): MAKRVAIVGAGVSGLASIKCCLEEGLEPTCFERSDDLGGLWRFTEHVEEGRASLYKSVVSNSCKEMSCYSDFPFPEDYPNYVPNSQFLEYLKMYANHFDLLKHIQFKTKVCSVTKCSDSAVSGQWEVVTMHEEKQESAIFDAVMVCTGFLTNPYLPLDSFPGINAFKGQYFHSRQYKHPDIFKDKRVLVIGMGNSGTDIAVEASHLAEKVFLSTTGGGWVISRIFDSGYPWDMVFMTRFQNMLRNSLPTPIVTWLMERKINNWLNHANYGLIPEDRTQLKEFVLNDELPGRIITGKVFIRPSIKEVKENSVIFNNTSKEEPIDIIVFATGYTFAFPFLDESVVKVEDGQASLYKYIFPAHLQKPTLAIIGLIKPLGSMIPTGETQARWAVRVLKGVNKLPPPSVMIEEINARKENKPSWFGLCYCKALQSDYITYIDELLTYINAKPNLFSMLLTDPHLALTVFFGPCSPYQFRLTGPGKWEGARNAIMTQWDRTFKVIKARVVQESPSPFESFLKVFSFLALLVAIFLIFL

[3] = Drug metabolism in dog liver S9 fraction assessed as ER-879123 formation at 50 uM after 60 mins in presence of NAD+ and carboxylesterase inhibitor BNPP by LC-MS/MS method; assay type: ADME, subcellular, Canis lupus familiaris; settings: 1 h
[4] = Drug metabolism in dog hepatocytes assessed as ER-879123 formation at 50 uM after 120 mins in presence of NADPH by LC-MS/MS method; assay type: ADME, cell-based, Canis lupus familiaris, Hepatocyte; settings: 2 h
[5] = Drug metabolism in dog liver S9 fraction assessed as ER-879123 formation at 50 uM after 60 mins in presence of NAD+ by LC-MS/MS method; assay type: ADME, subcellular, Canis lupus familiaris; settings: s9, 1 h
[6] = Drug metabolism in 50 degC treated dog liver S9 fraction assessed as ER-879123 formation at 50 uM after 60 mins in absence of NAD+ by LC-MS/MS method; assay type: ADME, tissue-based, Canis lupus familiaris; settings: s9, 1 h
[7] = Drug metabolism in dog liver S9 fraction assessed as ER-879123 formation at 50 uM after 60 mins in presence of NADP+ by LC-MS/MS method; assay type: ADME, subcellular, Canis lupus familiaris; settings: s9, 1 h
[8] = target: T2, Flavin-containing monooxygenase 5 (Homo sapiens, UniProt P49326); assay: Drug metabolism assessed as human recombinant FMO5-mediated ER-879123 formation in absence of rat liver cytosolic fractions at 50 uM after 60 mins by LC-MS/MS method; assay type: ADME, tissue-based; settings: recombinant enzyme, 1 h
T2 sequence (P49326 whole entry): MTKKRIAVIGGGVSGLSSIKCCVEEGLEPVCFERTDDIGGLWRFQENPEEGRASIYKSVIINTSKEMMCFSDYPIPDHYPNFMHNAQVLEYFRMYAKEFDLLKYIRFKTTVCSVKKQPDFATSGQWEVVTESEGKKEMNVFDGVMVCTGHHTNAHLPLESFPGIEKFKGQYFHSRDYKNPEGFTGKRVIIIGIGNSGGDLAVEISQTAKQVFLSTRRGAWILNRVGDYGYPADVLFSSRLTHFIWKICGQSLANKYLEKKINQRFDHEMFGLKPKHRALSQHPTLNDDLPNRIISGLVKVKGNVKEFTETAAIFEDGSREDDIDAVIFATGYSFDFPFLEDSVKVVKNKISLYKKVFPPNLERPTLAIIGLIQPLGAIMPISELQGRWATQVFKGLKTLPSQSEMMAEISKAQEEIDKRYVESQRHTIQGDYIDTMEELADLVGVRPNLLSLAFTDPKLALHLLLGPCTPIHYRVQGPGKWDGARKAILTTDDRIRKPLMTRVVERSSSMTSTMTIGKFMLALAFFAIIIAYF

[9] = Drug metabolism in human liver S9 fraction assessed as ER-879123 formation at 50 uM after 60 mins in presence of NAD+ and alcohol dehydrogenase inhibitor 4-methylpyrazole by LC-MS/MS method; assay type: ADME, subcellular; settings: s9, 1 h
[10] = Drug metabolism in dog liver S9 fraction assessed as ER-879123 formation at 50 uM after 60 mins in presence of NAD+ and alcohol dehydrogenase inhibitor 4-methylpyrazole by LC-MS/MS method; assay type: ADME, subcellular, Canis lupus familiaris; settings: s9, 1 h
Liver microsome [11] = assay: Drug metabolism in rat liver microsomes assessed as ER-879123 formation at 50 uM after 60 mins in presence of NADPH by LC-MS/MS method; assay type: ADME; settings: 1 h
[12] = Drug metabolism in human liver S9 fraction assessed as ER-879123 formation at 50 uM after 60 mins in presence of NAD+ and FMO1 and FMO3 substrate/inhibitor methimazole by LC-MS/MS method; assay type: ADME, subcellular; settings: s9, 1 h
[13] = Drug metabolism in human hepatocytes assessed as ER-879123 formation at 50 uM after 120 mins in presence of NADPH by LC-MS/MS method; assay type: ADME, cell-based, Hepatocyte; settings: 2 h
[14] = target: T2, Flavin-containing monooxygenase 5; assay: Drug metabolism assessed as human recombinant FMO5-mediated ER-879123 formation in presence of dog liver cytosolic fractions at 50 uM after 60 mins by LC-MS/MS method; assay type: ADME, tissue-based; settings: recombinant enzyme, 1 h
[15] = Drug metabolism in 50 degC treated human liver S9 fraction assessed as ER-879123 formation at 50 uM after 60 mins in absence of NAD+ by LC-MS/MS method; assay type: ADME, tissue-based; settings: s9, 1 h
[16] = target: T2, Flavin-containing monooxygenase 5; assay: Drug metabolism assessed as human recombinant FMO5-mediated ER-879123 formation in presence of human liver cytosolic fractions at 50 uM after 60 mins by LC-MS/MS method; assay type: ADME, tissue-based; settings: recombinant enzyme, 1 h
[17] = target: T2, Flavin-containing monooxygenase 5; assay: Drug metabolism assessed as human recombinant FMO5-mediated ER-879123 formation in presence of rat liver cytosolic fractions at 50 uM after 60 mins by LC-MS/MS method; assay type: ADME, tissue-based; settings: recombinant enzyme, 1 h
[18] = target: T2, Flavin-containing monooxygenase 5; assay: Drug metabolism assessed as human recombinant FMO5-mediated ER-879123 formation in absence of human liver cytosolic fractions at 50 uM after 60 mins by LC-MS/MS method; assay type: ADME, tissue-based; settings: recombinant enzyme, 1 h
[19] = target: T2, Flavin-containing monooxygenase 5; assay: Drug metabolism assessed as human recombinant FMO5-mediated ER-879123 formation in absence of dog liver cytosolic fractions at 50 uM after 60 mins by LC-MS/MS method; assay type: ADME, tissue-based; settings: recombinant enzyme, 1 h
[20] = Drug metabolism in human liver S9 fraction assessed as ER-879123 formation at 50 uM after 60 mins in presence of NAD+ by LC-MS/MS method; assay type: ADME, subcellular; settings: s9, 1 h
Liver microsome [21] = assay: Drug metabolism in human liver microsomes assessed as ER-879123 formation at 50 uM after 60 mins in presence of NADPH by LC-MS/MS method; assay type: ADME; settings: 1 h
Liver microsome [22] = assay: Drug metabolism in dog liver microsomes assessed as ER-879123 formation at 50 uM after 60 mins in presence of NADPH by LC-MS/MS method; assay type: ADME, Canis lupus familiaris; settings: 1 h
[23] = target: T3, Flavin-containing monooxygenase 3 (Homo sapiens, UniProt P31513); assay: Drug metabolism assessed as human recombinant FMO3-mediated ER-879123 formation in presence of dog liver cytosolic fractions and NAD+ at 50 uM after 60 mins by LC-MS/MS method; assay type: ADME, tissue-based; settings: recombinant enzyme, 1 h
T3 sequence (P31513 whole entry): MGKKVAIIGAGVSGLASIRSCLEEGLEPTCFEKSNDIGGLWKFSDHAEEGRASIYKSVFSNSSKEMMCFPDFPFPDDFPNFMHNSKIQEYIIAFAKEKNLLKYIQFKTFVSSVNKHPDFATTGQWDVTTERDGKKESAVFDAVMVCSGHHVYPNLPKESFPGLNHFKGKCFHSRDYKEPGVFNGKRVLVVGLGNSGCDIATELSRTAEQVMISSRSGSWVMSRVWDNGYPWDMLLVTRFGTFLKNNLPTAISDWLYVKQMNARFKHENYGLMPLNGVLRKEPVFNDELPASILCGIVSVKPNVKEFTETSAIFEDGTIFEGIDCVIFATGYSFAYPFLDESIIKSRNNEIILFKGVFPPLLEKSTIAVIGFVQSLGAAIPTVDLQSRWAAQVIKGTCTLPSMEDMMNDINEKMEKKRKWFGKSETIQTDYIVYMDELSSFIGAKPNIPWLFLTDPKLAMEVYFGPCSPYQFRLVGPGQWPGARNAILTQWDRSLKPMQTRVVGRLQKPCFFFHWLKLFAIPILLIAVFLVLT

[24] = Drug metabolism in dog liver S9 fraction assessed as ER-879123 formation at 50 uM after 60 mins in presence of NAD+ and FMO1 and FMO3 substrate/inhibitor methimazole by LC-MS/MS method; assay type: ADME, subcellular, Canis lupus familiaris; settings: s9, 1 h
[25] = Drug metabolism in rat hepatocytes assessed as ER-879123 formation at 50 uM after 120 mins in presence of NADPH by LC-MS/MS method; assay type: ADME, cell-based, Hepatocyte; settings: 2 h
[26] = Drug metabolism in human liver S9 fraction assessed as ER-879123 formation at 50 uM after 60 mins in presence of NAD+ and carboxylesterase inhibitor BNPP by LC-MS/MS method; assay type: ADME, subcellular; settings: 1 h

- Drug metabolism [1]: metabolite_detected
- Drug metabolism [2]: metabolite_not_detected
- Drug metabolism [3]: metabolite_not_detected
- Drug metabolism [4]: metabolite_detected
- Drug metabolism [5]: metabolite_detected
- Drug metabolism [6]: metabolite_not_detected
- Drug metabolism [7]: metabolite_detected
- Drug metabolism [8]: metabolite_not_detected
- Drug metabolism [9]: metabolite_not_detected
- Drug metabolism [10]: metabolite_not_detected
- Drug metabolism (Liver microsome [11]): metabolite_not_detected
- Drug metabolism [12]: metabolite_detected
- Drug metabolism [13]: metabolite_detected
- Drug metabolism [14]: metabolite_detected
- Drug metabolism [15]: metabolite_not_detected
- Drug metabolism [16]: metabolite_detected
- Drug metabolism [17]: metabolite_detected
- Drug metabolism [18]: metabolite_not_detected
- Drug metabolism [19]: metabolite_not_detected
- Drug metabolism [20]: metabolite_detected
- Drug metabolism (Liver microsome [21]): metabolite_not_detected
- Drug metabolism (Liver microsome [22]): metabolite_not_detected
- Drug metabolism [23]: metabolite_not_detected
- Drug metabolism [24]: metabolite_detected
- Drug metabolism [25]: metabolite_detected
- Drug metabolism [26]: metabolite_not_detected
Structure (SMILES): O=c1[nH]nc2c3c(cccc13)Oc1ccc(CN3CCC(O)CC3)cc1-2 [E-7016]
